Values joined by “and” are separate entries in the source; they are usually repeats but may differ in a detail not shown here. Equal values may be shown once.
System: antibodies to pathogenic Newcastle disease virus
Assay type: binding, chicken

Question: 3 (RRQRRF) [compound 3] was tested. Which “number of positive chickens/number of tested chickens” value did it give?
Answer: 1/5(0.81) and 0/5(0.70) and 4/4(2.45)

— patent publication US8114408B2 (priority 2007, dated 2012)
